From patent US9851354B2, “Methods of treating fragile X syndrome and related disorders” (Alcobra Ltd., priority 2013, dated 2017)
Entries after “also recorded” stand apart in the source; their conditions may differ.

Key:
Format in all cases: in vivo, mouse
[1] = test system: Fmr1 knockout (KO) or Wild Type (WT) mice; assay: Social approach (sniffing of a juvenile, Trial 1); conditions: for social approach (sniffing bouts) / social approach, duration of sniffing: 2 months old; for social approach (sniffing bouts): Study 1; for social approach, duration of sniffing: Study 2; for duration of sniffing, Trial 1: 150 mg/kg ip 7 days
Description: (§1) Fmr1 knockout mice (KO2) mice (The Dutch-Belgium Fragile X Consortium, 1994), initially obtained from the Jackson Laboratory, and wild type (WT) littermates were generated on a C57BL/6J background and repeatedly backcrossed onto a C57BL/6J background for more than eight generations. The Fmr1 knockout mice were housed in groups of the same genotype in a temperature and humidity controlled room with a 12-h light-dark cycle (lights on from 7 am to 7 pm; testing was conducted during light phase). Room temperature and humidity were recorded continuously in the holding room while food and water were available ad libitum. Testing was conducted on healthy Fmr1 knockout mice and their wild type littermates (N=10 mice per treatment group) at 2 or 6 months of age during the behavioral experiments. Mice were housed in commercial plastic cages and experiments were conducted in line with the requirements of the UK Animals (Scientific Procedures) Act, 1986. All experiments were conducted with experimenters blind to genotype and drug treatment. Animals were allowed a minimum acclimatization period of one week prior to performing any experiment. No prophylactic or therapeutic treatment was administered during the acclimatization period.
(§2) In all cases, saline was used as a vehicle (control).
Mice are a social species that engage in easily scored social behaviors including approaching, following, sniffing, grooming, aggressive encounters, sexual interactions, parental behaviors, nesting, and sleeping in a group huddle. Social approach in mice was evaluated by sniffing duration directed to a novel mouse.
Mice were placed in a test arena/cage of the same order of magnitude in size as the adult's home cage (40×23×12 cm cage, with a Perspex lid to facilitate viewing the mice) with fresh wood chippings on the floor. A background mouse odor was created by putting in some non-experimental mice into the apparatus prior to testing. Mice were transferred to the experimental room 10-15 min prior to testing. A test subject and a juvenile were placed simultaneously into the test cage. The total duration and number of bouts of social investigation, defined as sniffing and close following (<2 cm from the tail) of the stimulus juvenile by the tested mouse, was assessed for 3 min. 30 min later, the test was repeated using the same stimulus juvenile. Data parameters collected were the total duration and total number of bouts of sniffing for the acquisition and recognition. A social memory ratio was derived, defined as trial 2/trial 1+2. Therefore, no memory (e.g. 20/(20+20)=0.5 and memory (e.g. 10/(20+10)=<0.5.
(§3) Multivariate analysis of variance was employed to assess group differences across data. Repeated measures ANOVA were performed for behavioral data. Statistically significant effects in each ANOVA were followed with post hoc comparisons, using the Newman-Keuls test (Study 1) or the Tukey test (Study 2). A p value of less than 0.05 was considered significant.

[2] = test system: Fmr1 knockout (KO) or Wild Type (WT) mice; assay: Y-maze spontaneous alternation; conditions: 2 months old, 150 mg/kg once daily 7 days, Study 1
Description: as §1, §2
Two tasks were implemented. The first was an unlearned assessment of spontaneous alternation between arm entries. […]

[3] = test system: Fmr1 knockout (KO) or Wild Type (WT) mice; assay: Successive alleys (anxiety and hyperactivity); conditions: 2 months old, 150 mg/kg once daily 7 days, Study 1
Description: as §1, §2
The apparatus consisted of four successive, linearly arranged, increasingly anxiogenic alleys (each succeeding alley was painted a lighter color, had lower walls and/or was narrower than the previous alley) made of painted wood. Each section or alley was 25 cm long. Alley 1 had 25 cm high walls, was 8.5 cm wide, and was painted black. A 0.5 cm step down led to alley 2, which was again 8.5 cm wide, but had 1.3 cm high walls and was grey. A 1.0 cm step down led to alley 3, which was 3.5 cm wide, had 0.8 cm high walls, and was white. A 0.4 cm step led down to alley 4, which was also white, but had 1.2 cm wide and 0.2 cm high walls. The apparatus was elevated by anchoring the back of alley 1 to a stand, 50 cm high. Padding was provided under arms 3 and 4 in case a mouse fell off. Each mouse was placed at the closed end of alley 1 facing the wall. Timers were started 1) for the overall length of the test (5 min)+the latency to enter each arm, and 2) for the time spent in alley 1. When the mouse placed all 4 feet on to the next alley, it was considered to have entered the alley. Total time spent in each alley (all four feet) was recorded.
as §3
The successive alleys test effectively measured anxiety (latency to enter the Alley 1) and hyperactivity (Alleys 2 to 4). Progression from Alley 1 through the successive Alleys 2, 3, and 4 was associated with exposure to an increasingly brightly colored environment with increasingly lower walls and narrower, more exposed open arms. Time spent on, and entries into, the open arms indicated anxiety; conversely, increasing time spent in more open arms reflected hyperactivity. These factors allowed for a sensitive test bracketing a range of anxiety-like behaviors together with hyperactivity.

[4] = Fmr1 KO mice, 6 months old, 150 mg/kg ip once daily 7 days

Compound: Cc1ncc(CO)c(CO)c1O.O=C1CC[C@@H](C(=O)O)N1 [metadoxine, pyridoxol L,2-pyrrolidon-5 carboxylate]
- social approach (sniffing bouts) ([1]; Fmr1 KO mice, 150 mg/kg ip once daily 7 days, 150 mg/kg): increased social approach in Fmr1 knockout mice; also recorded: improved social interaction
- social approach, duration of sniffing ([1]; Fmr1 KO mice, 150 mg/kg ip once daily 7 days): reversal was complete
- social approach, duration of sniffing ([1]; Fmr1 KO mice, 150 mg/kg oral once daily 7 days): reversal was complete
- social approach, duration of sniffing ([1]; Fmr1 KO mice, 300 mg/kg oral once daily 7 days): reversal was complete
- social approach, duration of sniffing (Trial 1) [1, 4]: this effect was partial
- social approach, number of sniffing bouts (Trial 1) [1, 4]: did not differ from metadoxine-treated WT mice
- duration of sniffing, Trial 1 ([1]; KO-M: Fmr1 KO mice, 6 months old): 28.4
- social approach (sniffing bouts) ([1]; WT mice, 150 mg/kg ip once daily 7 days): no effect on WT mice
- social approach, duration of sniffing ([1]; WT mice, any dose (150 mg/kg ip, 150 and 300 mg/kg oral)): without effect on WT mice
- social approach, sniffing bouts and duration (Trial 1) ([1]; WT mice, 6 months old, 150 mg/kg ip once daily 7 days): without effect on WT mice
- duration of sniffing, Trial 1 ([1]; WT-M: WT mice, 6 months old): 38.5
- Y-maze spontaneous alternation [2]: partial reversal of the deficit
- successive alleys, Alley 1 (anxiety) ([3]; Fmr1 KO mice): complete normalization occurred
- successive alleys, Alley 2 (hyperactivity) ([3]; Fmr1 KO mice): reversal of hyperactivity was partial
- successive alleys, Alley 3 (hyperactivity) ([3]; Fmr1 KO mice): hyperactivity was not reversed
- successive alleys, Alley 4 (hyperactivity) ([3]; Fmr1 KO mice): reversed this hyperactivity
- successive alleys, Alley 1 (anxiety) ([3]; WT mice): no effect on WT mice
- successive alleys, Alley 2 (activity) ([3]; WT mice): no effect on WT mice
- successive alleys, Alley 3 (activity) ([3]; WT mice): no effect on WT mice
- successive alleys, Alley 4 (activity) ([3]; WT mice): no effect on WT mice
